Results on 19 compounds are retold here after patent US20240391877A1, “COMPOUND AS INHIBITOR OF COMPLEMENT FACTOR D, AND PHARMACEUTICAL COMPOSITION AND USE THEREOF” (WUHAN CREATERNA SCIENCE AND TECHNOLOGY CO.,LTD., priority 2021, published 2024).

Data set [1] relates to hemolysis of rabbit erythrocytes. Kind of data set: Rabbit erythrocyte hemolysis assay to evaluate inhibitory activity on the bypass pathway. Format: cell-based. The following applies: Oryctolagus cuniculus, 0.5 h, 48% NHP or 26.4% NHS, 37° C. 30 min, absorbance 415 nm. An excerpt: 2. Rabbit Erythrocyte Hemolysis Assay to Evaluate the Inhibitory Activity of Compounds on the Bypass Pathway
Normal Human Serum, NHS (collected from healthy people), Normal Human Plasma, NHP (Shanghai Yuduo), 96-well ELISA plate (Jet Biofil), Japanese big-eared white rabbit (Wuhan WQJX), Alsever's solution (Procell), centrifuge (Thermo, PICO17), thermostatic shaker (Shanghai Fuma), destaining shaker (Beijing Liuyi), cell counter (Invitrogen, Counter Countess II) (GVB^o, EGTA, MgCl2, NaOH, microplate reader, microplate thermostatic shaker, and pipette are equivalent to those in the experiment 1).
48% NHP: 100% NHP was diluted to 48% with buffer;
26.4% NPS: 100% NHS was diluted to 26.4% with buffer;
rabbit erythrocyte suspension: blood was taken from rabbit ear marginal vein, anticoagulated with Alsever's solution at a ratio of 1:1, stored in portions at 4° C., and could be stored for 4 weeks. Before use, the suspension was centrifuged at 500 g for 5 min to discard the Alsever's solution, washed three times with an equal volume of buffer and centrifuged at 500 g for 5 min, and finally the density was adjusted to 6×10^8 cells/mL with buffer.
In the 96-well ELISA plate, the experimental group was added with 50 μL of 48% NHP or 26.4% NHS and 50 μL of compound solution; the positive control group was added with 50 μL of 48% NHP or 26.4% NHS and 50 μL of buffer containing 0.2% DMSO; the blank control group was added with 50 μL of 48% inactivated NHP or 26.4% inactivated NHS and 0.2% DMSO buffer; the H2O group was added with 100 μL of double-distilled water; incubated at 37° C. for 15 min; 20 μL of rabbit erythrocyte suspension was added to each well and incubated on a shaker at 37° C. for 30 min; centrifuged at 2000 g (3380 rpm) for 5 min, and […] of supernatant was transferred to a new 96-well ELISA plate, and the absorbance was detected at 415 nm.
The PC group represents 100% hemolysis, and the NC group represents 0% hemolysis.
IC50: half-maximal inhibitory concentration. Data were collected to calculate the log value of hemolysis percentage versus compound concentration, and IC50 values were calculated using GraphPad Prism software.

The target in data set [2] is T1, complement factor D (Homo sapiens, UniProt P00746).
T1 construct: purchased Complement tech
Briefly: Complement factor D inhibitory activity (C3b method) in vitro screening; product Bb detected by ELISA. The class given is biochemical. The following applies: factor D + factor B + factor C3b, 37° C., Bb by MicroVue Bb Plus ELISA. An excerpt: 1. Complement Factor D Inhibitory Activity (C3b Method) In Vitro Screening Experiment
V-bottom plate (AXYGEN), DMSO (Sigma), MicroVue Bb Plus ELISA kit (Quidel), complement factor C3b (abbreviated as factor C3b, Complement tech), complement factor B (abbreviated as factor B, Complement tech), complement factor D (abbreviated as factor D, Complement tech), EDTA (MACKLIN), GVB^o (Complement tech), EGTA (Aladdin), MgCl2 (Aladdin), NaOH (Sinopharm), microplate reader (Molecular Devices, SpectraMax i3x), microplate thermostatic shaker (Thermo, MB100-2A), pipette (Gilson)
0.1 M Mg-EGTA: 3.8 g of EGTA, 0.9521 g of MgCl2, and 0.7 g of NaOH were weighed, and the pH was adjusted to 7.5 with NaOH. Distilled water was added to make up to 100 mL, and the mixture was filtered with a […] sterile needle filter, stored in portions at 4° C.
Buffer: 0.1 M Mg-EGTA solution was diluted 10-fold to 10 mM with GVB^o buffer; • factor B working solution: 1 mg/mL factor B solution (10.75 μM) was diluted 6.7-fold to 1.6 μM with buffer; • factor C3b working solution: 1 mg/mL factor C3b solution (5.68 μM) was diluted 5-fold to […] with buffer; • factor D working solution: 0.1 mg/mL factor D solution (4.17 μM) was diluted 1303-fold to 3.2 nM with buffer.
Note: a. The above dilution multiples are for reference only and are adjusted according to the true concentration labeled on the reagent; • b. factor B: 93 KDa, factor D: 24 KDa, factor C3b: 176 KDa.
Stop solution: An appropriate amount of EDTA powder was weighed, dissolved in a certain amount of GVB^o buffer, and the pH was adjusted to 7.5 with NaOH. The mixture was stirred until clear and prepared into a 10 mM solution.
Compound stock solution: 40 mM compound solution was diluted with DMSO into 1 mM stock solution, and the 1 mM stock solution was diluted 3-fold with DMSO at 8 points to prepare compound stock solutions of various concentrations.
Compound working solution: diluted 250-fold with buffer to obtain compound solutions of various concentrations.
In the V-bottom plate, the experimental group was added with 10 μL of factor D solution and 10 μL of compound solution; the positive control group was added with 10 μL of factor D solution and buffer containing 0.4% DMSO; the blank control group was added with […] containing 0.2% DMSO; incubated at 37° C. for 15 min; the factor B working solution and the factor C3b working solution were mixed homogeneously at a ratio of 1:1; 20 µL of the mixture was added to each well and incubated at 37° C. for 30 min; the reaction was stopped by adding 40 μL of stop solution; the production of product Bb was detected by MicroVue Bb Plus ELISA kit.
1.4.1 The required wells of the ELISA plate were taken out and allowed to return to room temperature, and the remaining ones were repackaged and stored at 4° C.;
1.4.2 the wells were washed twice with 300 μL of 1× wash buffer, and incubated for 1 min at 25° C. for the first wash;
1.4.3 samples were diluted 8-fold with complement specimen diluent, and 100 μL of sample was added to each well and incubated at 25° C. for 30 min;
1.4.4 the liquid in the wells was discarded, and the wells were washed 5 times with 300 μL of 1× wash buffer, and incubated at room temperature for 1 min for the first wash;
1.4.5 50 μL of Bb Plus Conjugate was added to each well and incubated at 25° C. for 30 min;
1.4.6 the liquid in the wells was discarded, and the wells were washed 5 times with 300 μL of 1× wash buffer, and incubated at room temperature for 1 min for the first wash;
1.4.7 100 μL of […] (Substrate Solution) was added to each well and incubated at 25° C. for 15 min;
1.4.8 100 μL of stop solution was added to each well, and the absorbance was detected at 450 nm within 30 min.
1.5.1 Inhibition rate of each drug concentration:
The PC group represents 0% inhibition rate, and the NC group represents 100% inhibition rate. […]

Data set [3] in a line: In vivo pharmacokinetic study (PK assay on SD rats). The note with it: Sprague-Dawley, rat, plasma; for AUC(0-t) / Cmax / half-life: 1 mg/kg. The procedure: 3. In Vivo Pharmacokinetic Study of the Compounds of the Present Disclosure
After adaptive domestication, SPF grade SD rats were administered 1 or 3 mg/kg the compounds of the present disclosure by single gavage and tail vein injection, respectively. Plasma was collected at specific time points after administration, and the concentration of compounds in plasma was detected by LC-MS/MS (AB SCIEX Qtrap4500). The PK parameters of each compound were calculated using software to reflect the pharmacokinetic properties of the compounds of the present disclosure in vivo in animals.

T1 sequence (P00746 26-253): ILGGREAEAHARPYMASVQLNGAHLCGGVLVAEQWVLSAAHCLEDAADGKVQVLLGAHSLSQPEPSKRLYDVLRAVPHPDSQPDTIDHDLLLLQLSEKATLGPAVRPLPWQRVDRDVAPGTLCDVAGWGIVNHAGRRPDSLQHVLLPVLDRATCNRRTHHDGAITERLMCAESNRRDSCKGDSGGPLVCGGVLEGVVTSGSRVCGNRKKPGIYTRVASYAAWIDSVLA

`NCc1cccc(-c2cc(COc3ccccc3CC(=O)O)cc(N3CCC4(CCC4)CC3)c2)c1` [Compound 002, 2-(2-((3′-(aminomethyl)-5-(7-azaspiro[3.5]nonan-7-yl)-[1,1′-biphenyl]-3-yl)methoxy)phenyl)acetic acid] returned a half-maximal inhibitory concentration (IC50) in data set [1] of 98 nM.

Regarding `NCc1cccc(-c2cc(COc3ccccc3CC(=O)O)cc(N3CCC4(CCC4)C3)c2)c1` [Compound 003, 2-(2-((3′-(aminomethyl)-5-(6-azaspiro[3.4]octan-6-yl)-[1,1′-biphenyl]-3-yl)methoxy)phenyl)acetic acid], the concentration for half-maximal inhibition (IC50) was determined as 3 nM in data set [2] and 43 nM in data set [1].

On to `NCc1cccc(-c2cc(COc3ccccc3CC(=O)O)cc(N3CC4(CCCCC4)C3)c2)c1` [Compound 005, 2-(2-((3′-(aminomethyl)-5-(2-azaspiro[3.5]nonan-2-yl)-[1,1′-biphenyl]-3-yl)methoxy)phenyl)acetic acid], for which the 50% inhibitory concentration (IC50) in data set [1] is 73 nM.

In data set [1], `NCc1cccc(-c2cc(COc3cc(F)ccc3CC(=O)O)cc(N3CCC4(CC3)CC4)c2)c1` [Compound 009, 2-(2-((3′-(aminomethyl)-5-(6-azaspiro[2.5]octan-6-yl)-[1,1′-biphenyl]-3-yl)methoxy)-4-fluorophenyl)acetic acid] displayed an IC50 of 218 nM.

As for `NCc1cccc(-c2cc(COc3ccc(F)cc3CC(=O)O)cc(N3CCC4(CC3)CC4)c2)c1` [Compound 010, 2-(2-((3′-(aminomethyl)-5-(6-azaspiro[2.5]octan-6-yl)-[1,1′-biphenyl]-3-yl)methoxy)-5-fluorophenyl)acetic acid], the IC50 in data set [1] was 159 nM. For the same compound, in data set [3] (IV), the exposure AUC(0-t) amounted to 5660 ng·h/mL, the concentration peaked (Cmax) at 1840 ng/mL and the half-life was 3.31 h. Moreover, the bioavailability in data set [3] (PO 1 mg/kg vs IV 1 mg/kg, read-out: Oral bioavailability F) came to 30.9%. Also, in data set [3] (PO (3% DMSO + 4% Tween)), the area under the curve AUC(0-t) came to 1750 ng·h/mL, the Cmax stood at 349 ng/mL and the half-life was 3.18 h.

Turning to `NCc1cccc(-c2cc(COc3ccccc3CC(=O)O)cc(N3CCC4(COC4)C3)c2)c1` [Compound 015, 2-(2-((3′-(aminomethyl)-5-(2-oxa-6-azaspiro[3.4]octan-6-yl)-[1,1′-biphenyl]-3-yl)methoxy)phenyl)acetic acid], the half-inhibitory concentration (IC50) in data set [1] was 7 nM.

`NCc1cccc(-c2cc(COc3ccccc3CC(=O)O)c(F)c(N3CCC4(CC3)COC4)c2)c1` [Compound 026, 2-(2-((3′-(aminomethyl)-4-fluoro-5-(2-oxa-7-azaspiro[3.5]nonan-7-yl)-[1,1′-biphenyl]-3-yl)methoxy)phenyl)acetic acid] displayed an IC50 in data set [1] of 16 nM.

In turn, `NCc1cccc(-c2cc(COc3c(F)cccc3CC(=O)O)cc(N3CCC4(CC3)COC4)c2)c1` [Compound 028, 2-(2-((3′-(aminomethyl)-5-(2-oxa-7-azaspiro[3.5]nonan-7-yl)-[1,1′-biphenyl]-3-yl)methoxy)-3-fluorophenyl)acetic acid] came in with a concentration for half-maximal inhibition (IC50) in data set [1] of 58 nM.

As for `CC(N)c1cccc(-c2cc(COc3ccccc3CC(=O)O)cc(N3CCOC4(CC4)C3)c2)c1` (stereo not drawn) [Compound 035], half-maximal inhibition in data set [1] (IC50) required 183 nM.

Consider `CC(N)c1cccc(-c2cc(COc3ccccc3CC(=O)O)cc(N3CCC4(CCOC4)CC3)c2)c1` (stereo not drawn) [Compound 036], for which the concentration for half-maximal inhibition (IC50) in data set [1] is 44 nM.

With `CC(N)c1cccc(-c2cc(COc3ccccc3CC(=O)O)cc(N3CCC4(CCOCC4)CC3)c2)c1` (stereo not drawn) [Compound 038], half-maximal inhibition in data set [1] (IC50) was put at 206 nM.

In the case of `CC(N)c1cccc(-c2cc(COc3ccccc3CC(=O)O)cc(N3CCC4(CCCOC4)CC3)c2)c1` (stereo not drawn) [Compound 039], the IC50 in data set [1] came to 127 nM.

`CC(N)c1cccc(-c2cc(COc3ccccc3CC(=O)O)cc(N3CC4(CCOC4)C3)c2)c1` (stereo not drawn) [Compound 040] gave a concentration for half-maximal inhibition (IC50) in data set [1] of 138 nM.

For `CC(N)c1cccc(-c2cc(COc3ccccc3CC(=O)O)cc(N3CCC4(CCO4)C3)c2)c1` (stereo not drawn) [Compound 041, 2-(2-((3′-(1-aminoethyl)-5-(1-oxa-6-azaspiro[3.4]octan-6-yl)-[1,1′-biphenyl]-3-yl)methoxy)phenyl)acetic acid], the 50% inhibitory concentration (IC50) in data set [1] is 151 nM.

For `CC(N)c1cccc(-c2cc(COc3ccccc3CC(=O)O)cc(N3CCC4(CC3)COC4)c2)c1` (stereo not drawn) [Compound 042], in data set [1], 50 nM corresponded to half-maximal inhibition (IC50).

Consider `CC(N)c1cccc(-c2cc(COc3ccccc3CC(=O)O)cc(N3CCC4(CCO4)CC3)c2)c1` (stereo not drawn) [Compound 043], for which, in data set [1], the concentration for half-maximal inhibition (IC50) amounted to 93 nM.

Compound `NC(CF)c1cccc(-c2cc(COc3ccccc3CC(=O)O)cc(N3CCC4(CC3)COC4)c2)c1` (stereo not drawn) [Compound 044, 2-(2-((3′-(1-amino-2-fluoroethyl)-5-(2-oxa-7-azaspiro[3.5]nonan-7-yl)-[1,1′-biphenyl]-3-yl)methoxy)phenyl)acetic acid] yielded a 50% inhibitory concentration (IC50) in data set [1] of 133 nM.

Compound `CC(N)c1cccc(-c2cc(COc3ccccc3CC(=O)O)cc(N3CCC4(CCOCC4)CC3)c2)c1F` (stereo not drawn) [Compound 055, 2-(2-((3′-(1-aminoethyl)-2′-fluoro-5-(3-oxa-9-azaspiro[5.5]undecan-9-yl)-[1,1′-biphenyl]-3-yl)methoxy)phenyl)acetic acid] came in with a 50% inhibitory concentration (IC50) in data set [1] of 117 nM.

Regarding `CC(N)c1cccc(-c2cc(COc3ccccc3CC(=O)O)cc(N3CCC4(CCCOC4)CC3)c2)c1F` (stereo not drawn) [Compound 056, 2-(2-((3′-(1-aminoethyl)-2′-fluoro-5-(2-oxa-9-azaspiro[5.5]undecan-9-yl)-[1,1′-biphenyl]-3-yl)methoxy)phenyl)acetic acid], the half-inhibitory concentration (IC50) in data set [1] stood at 70 nM.
